Test results as given in patent US20040242463A1, “Compositions for stabilizing oxygen-labile species” (priority 1999, published 2004).

Assay: Stability of formulations containing retinol, ascorbic acid and/or tocopherol, HPLC assay
Assay type: physicochemical
Description: The stability of different formulations containing retinol, ascorbic acid and/or tocopherol as set forth in Examples 7 and 8 below were monitored in terms of appearance and HPLC assay. The degraded products of retinol, ascorbic acid or tocopherol are yellow or brownish in color. The freshly prepared samples were white creams. Discoloration to yellow or brown indicates the instability.

| Effect on stability of tocopherol | Effect of addition on the stability of retinol and tocopherol | Structure (SMILES) |
| --- | --- | --- |
| assists in stabilizing tocopherol | – | O=C1O[C@H]([C@@H](O)CO)C(O)=C1O [ascorbic acid] |
| – | slightly enhances | CC(=O)N[C@@H](CS)C(=O)O [N-acetlcysteine, N-acetylcysteine] |
